Consider one molecule from patent publication US10287259B2, “Selenazolidine and thiazolidine compounds for treating cancer and other diseases” (The Penn State Research Foundation, priority 2016, dated 2019).

Some results are limits rather than exact numbers.

The test system of series [1] is Panc-1 cells. Kind of series: Muse Live/dead Annexin V assay. Type of series: cell-based. The note with it: Panc-1, 48 h; AS-10 2.5 μM, gemcitabine 50 μM. As for the experimental part: Muse Annexin V & Dead Cell kit was used to determine the apoptosis cells in AS-10 treated Panc-1 cells (Plano et al., 2016, J. Med. Chem. 1946-1959). The Muse Annexin V & Dead cell assay contains Annexin V to detect phosphatidylserine (PS) on the outer surface of cells. The kit also contains a dead cell marker, 7-amino-actinomycin D (7-AAD). […] In brief, Panc-1 (1.5×10^5) cells were treated with a given dose of AS-10 or DMSO for appropriate time (0, 6, 12, 24, 36, or 48 h). Both floating cells as well as adherent cells were collected and subjected for Annexin V staining using Muse Annexin V & Dead Cell kit with Muse cell analyzer (EMD Millipore, Billerica, Mass., USA). The obtained data were analyzed using Muse 1.4 software.

Series [2] deals with Mouse embryonic fibroblast cells (MEFs). The experiment in a line: cells. The series is classed as cell-based. As for the experimental part: (§1) MTT (3-(4,5-dimethylthiazol-2-yl)-2,5-diphenyltetrazolium) assay was performed to determine the effect of AS-10 on cancer cell viability (Plano et al., 2016, J. Med. Chem. 1946-1959; Alcolea et al., 2012, Eur. J. Med. Chem. 113:134-144; Kumar et al., 2014, Eur. J. Med. Chem. 81:267-276). Briefly, 3×10^3 cells were treated with different concentrations of AS-10 in triplicate in a 96-well plate for different time points. MTT solution (20 μL of 5.0 mg/mL solution) was added to each well, three hours prior to termination time point and incubated at 37° C. Resultant formazan crystals, at termination time point, were dissolved in 50 μL DMSO. The plate was subjected to a 96-well multiscanner (Dynex Technologies, MRX Revelation; Chantilly, Va., USA) for measuring the optical densities at 570 nm and 630 nm. IC50 values were determined by performing non-linear regression using Graphpad Prism software.
To determine that AS-10 was selectively toxic to cancer cells, the effect of AS-10 in normal Mouse embryonic fibroblast cells (MEFs) was tested using MTT assay. MEFs were treated with AS-10 for 48 h and the data was compared with Panc-1 cells, treated for 48 h. […] At the dose which yields 50 percent growth inhibition in PC cells, AS-10 had no effect on MEFs growth.

The test system of series [3] is Panc-1 cells. Kind of series: Cell cycle analysis by flow cytometry. The series is classed as cell-based. The note with it: serum starved 72 h; 24 h to 60 h time points. As for the experimental part:
Flow cytometry was used to determine the cell cycle phases (Plano et al., 2016, J. Med. Chem. 1946-1959). In brief, Panc-1 cells were serum starved for 72 h, followed by treatment with different doses of AS-10 in 10% serum containing media for different time points. Treated cells were fixed in 70% cold ethanol at the end of each time point. Cells were fixed for a minimum of 4 h at 4° C. Following fixation, cells were washed with 1×PBS and were re-suspended in Propidium iodide (PI) staining solution (0.1% (v/v) triton X-100, 20 mg DNAse-free RNAse A and 2 mg of PI in 100 mL PBS). Cells were incubated in the staining solution for 15 minutes at room temperature and then analyzed by a BD FACS Calibur (BD Biosciences) for total DNA content. Modfit software (BD Biosciences) was used to obtain the histograms.
In general terms: Flow cytometry measures light scatter and fluorescence of single cells or particles in a stream.

Series [4] concerns NF-κB. The experiment in a line: Electrophoretic mobility shift assay (EMSA). The note with it: Panc-1, 6 h pretreatment, TNF-α 30 min. The series is classed as cell-based. As for the experimental part: To determine NF-κB activation, Panc-1 (1×10^6) cells were treated with different doses of AS-10 for 6 h. Thirty minutes before termination cells were stimulated with 100 ng/mL TNF-α (which is about 3.9 nM in media after addition). At the end of thirty minutes, cells were immediately stored on ice. Nuclear and cytosolic extracts were prepared as described previously (Pandey et al., 2007, J. Biol. Chem. 282: 17340-17350). Nuclear lysates were subjected to EMSA following the protocol (Pandey et al., 2007, J. Biol. Chem. 282: 17340-17350). The dried gels were exposed to X-ray films at −80° C. for exposure.

The test system of series [5] is pancreatic cancer cells. Kind of series: MTT cell viability assay, pancreatic cancer (PC) cells. The series is classed as cell-based. The settings on record: Pancreatic cancer cell. As for the experimental part: as §1
(In general: Formazan colour is commonly taken as a measure of viable cells.)

The test system of series [6] is HCT116 colon cancer xenograft. Kind of series: Colon cancer xenograft tumor inhibition. Type of series: in vivo. As for the experimental part:
Athymic nude mice were used to evaluate the tumor inhibitory effect of AS-10 against a xenograft model of colon cancer. Approximately, 5×10^6 cells (HCT116) were inoculated into both left and right flanks of mice. After eight days, vehicle (DMSO) or AS-10 (45.2 mg/Kg) were injected via IP injection three times per week for 18 days.

The test system of series [7] is Panc-1 cells. Kind of series: Live/dead assay with calcein-AM and ethidium bromide. The settings on record: Panc-1, 48 h; AS-10 2.5 μM, gemcitabine 50 μM. The series is classed as cell-based. As for the experimental part: To determine the dead cell population, we used LIVE/DEAD Viability/Cytotoxicity Kit (L3224, Life technologies, USA). Panc-1 cells were treated with either DMSO, gemcitabine (50 μM), or AS-10 (2.5 μM) or in combination for 48 h. Live and dead cells were determined by subjecting treated cells to LIVE/DEAD Viability/Cytotoxicity Kit (Plano et al., 2016, J. Med. Chem. 1946-1959). […] While ethidium homodimer-1 can only enter cells who have lost their plasma membrane integrity or dead cells and fluorescents red. Stained cells were visualized using a fluorescence microscope (Zeiss—Axio Scope.A1) with a 20× objective lens. Percentage values of live and dead cells were calculated.

Series [8] deals with Panc-1 cells. The experiment in a line: Colony formation assay. Type of series: cell-based. The settings on record: 48 h treatment, colonies for 17 days. As for the experimental part: Crystal violet staining method was utilized for performing colony formation assay (Franken et al., 2006, Nat. protoc. 1:2315-2319). In brief, Panc-1 cells were treated with vehicle control (DMSO). 2.5 μM or 10 μM of AS-10 for 48 h. After 48 h treatment period, cells were trypsinized and live cells were counted using tryphan blue dye exclusion assay. Tissue culture plates of size 60×15 mm were seeded with 100 live cells from vehicle treated and 5000 live cells from AS-10 treated cells. Cells were allowed to form colonies for 17 days in DMEM free from DMSO or AS-10 at 37° C. in a 5% CO2 chamber. After 17 days' colonies were stained with 0.5% alcoholic crystal violet. Percentage Plating efficiency (PE) was calculated by the formula: % PE=number of colonies*100/number of cells plated. Data plotted as % relative PE.

For orientation: IC50 means the point on the concentration scale where inhibition reaches its midpoint. Broadly, the EC50 is the concentration at which the effect is half-maximal. Turning to `CC(=O)Oc1ccccc1C(=O)/N=C1\[Se]CCN1C(=O)c1ccccc1OC(C)=O` [AS-10, 2-((3-(2-acetoxybenzoyl)-1,3-selenazolidin-2-ylidene)carbamoyl)phenyl acetate], the total apoptotic cells in series [1] is on record as ~25%. Also, in series [2], the “effect on MEFs growth” value is “no effect”. Further, the IC50 in series [2] (Mus musculus, Fibroblast, read-out: IC50, normal (Mouse Embryonic Fibroblasts) cells) was > 50 µM; in series [5] (read-out: IC50, cytotoxicity to pancreatic cancer cells) it was 0.5 to 2.5 µM. In addition, the cell cycle effect result in series [3] was “cell cycle arrest in G1 and G2/M phase and total inhibition of S phase”. In addition, in series [4], the “NF-κB DNA binding (EMSA band)” value is given as “NF-κB band faded away in a dose dependent manner”. Also, in series [5] (in vitro, read-out: EC50, reduction of PC cell growth), the EC50 lay within 2.5 to 5 µM. Also, the “systemic toxicity from body weights of mice” value in series [6] (45.2 mg/Kg IP three times per week for 18 days) is given as “no apparent no systemic toxicity”. Moreover, the “tumor growth inhibition compared to vehicle treated mice” value in series [6] (45.2 mg/kg IP three times per week for 18 days, athymic nude mice) is listed as ~70%. The dead cells in series [7] is on record as ~10%. Also, the “colonies formed compared to vehicle treated cells” value in series [8] was “effectively decreased the amount of colonies formed”.
